Laboratory results: patent US12447135B2 (University of South Florida, priority 2021, dated 2025)
Entries after “also recorded” stand apart in the source; their conditions may differ. Structures can show the parent of a compound that is named as a salt.

Tests used:
Assay type in all cases: cell-based, human
FFAR2 signaling [1] = test: Western blot of phospho-ERK1/2 in SK-N-SH cells (FFAR2 signal activation); details: 10 μM, 30 min
Experimental: To determine the FFAR2 signal activating property of selected compounds, SK-N-SH cells were treated with 10 μM of shortlisted compounds for 30 min at 37° C. and harvested for total protein extraction. […] After sonication, cell extracts were centrifuged at 8,000×g for 10 min at 4° C., and the supernatant was separated in a fresh tube. The total protein concentration of the supernatant was measured using a BCA protein assay kit. An equal amount of total protein (45 μg) from each sample was dissolved in loading buffer and loaded in 4% stacking gel and 10% separating SDS-PAGE gel and resolved at 100 V. Proteins were transferred on a 0.22 μm PVDF membrane and blots were developed with anti-ERK1/2, anti-phosphoERK1/2, ubiquitin (P4D1), and Aβ (6E10) primary antibodies followed by their secondary antibodies and bands were visualized using the Pierce™ Fast Western Blot Kit, ECL Substrate acquired using Syngene Pxi. Band densities were also quantified using NIH ImageJ software. β-actin was used as an internal control.

SK-N-SH cells = test: Aβ-induced neurotoxicity, MTT viability assay; details: 10 μM CATPB, 25 μM Aβ
Experimental: To determine the impact of FFAR2 inhibition on Aβ-induced neuronal cell toxicity, the MTT viability assay was performed (Ronicke et al., 2008). SK-N-SH cells (1×10^3 cells per well) were plated in a 96-well plate containing DMEM medium supplemented with 10% FBS and 1% antibiotics and grown at 37° C. for 24 h. Then, media was removed, and cells were washed with PBS before being replenished with DMEM media containing 1% FBS and 10 μM FFAR2 inhibitor (CATPB, Tocris) and incubated at 37° C. for 2 h. Then, cells were treated with Aβ 25-32 peptide (25 μM, Sigma) and incubated for 4 h. Afterward, the media was replaced with 100 μl of fresh media, and 10 μl of MTT reagent (5 mg/ml in phosphate buffer [pH 7.2]) was added and mixed in each well before an additional 4 h incubation. Then, DMSO (50 μl) was added in each well and mixed thoroughly to dissolve formazan crystals. The absorbance was measured at 570 nm.

FFAR2 signaling [2] = test: cAMP-Glo assay, forskolin-induced cAMP in SK-N-SH cells; details: 10 μM compound, 10 μM forskolin
Experimental: FFAR2 is a Gi/o signaling receptor, which reduces cytosolic cAMP (Falomir-Lockhart et al., 2019). To determine the FFAR2 signaling activating potential of selected compounds, the cAMP-Glo™ Assay was used to measure intracellular cAMP. SK-N-SH cells (1×10^3 cells per well) were plated in a white 96-well plate for 24 h and then treated with 10 μM compounds and 10 μM forskolin (a positive control) dissolved in induction buffer. The cAMP levels were detected using a Luminescence Microplate Reader.

Molecule | descending order of phospho-ERK1/2 levels (FFAR2 signaling [1]) | Aβ-induced cell death / cell viability under FFAR2 inhibition (SK-N-SH cells) | cAMP upon Forskolin-stimulation, ascending order (FFAR2 signaling [2])
CC1(C)C2CCC1(C)C(O)C2 (centres unmarked) [Breneol] | Fenchol>Octopamine>Carvamenthenol>Camphene>Pentanone>Synephrine>Leucinamide>Carene>α-Terpineol>Breneol>L-Fenchone>D-Fenchone>Norpseudoephedrine HCl | – | –
O=C(O)C[C@H](Cc1ccc(C(F)(F)F)cc1)NC(=O)Cc1cccc(Cl)c1 [CATPB, reference compound] | – | further reduced cell viability; also recorded: further exacerbated Aβ-induced cell death | –
C=C1C2CCC(C2)C1(C)C (centres unmarked) [Camphene] | Fenchol>Octopamine>Carvamenthenol>Camphene>Pentanone>Synephrine>Leucinamide>Carene>α-Terpineol>Breneol>L-Fenchone>D-Fenchone>Norpseudoephedrine HCl | – | Fenchol<Carvamenthenol<α-Terpineol<Carene<Pentanone<Octopamine<Camphene
CC1(C)C(=O)[C@@]2(C)CCC1C2 [D-Fenchone] | Fenchol>Octopamine>Carvamenthenol>Camphene>Pentanone>Synephrine>Leucinamide>Carene>α-Terpineol>Breneol>L-Fenchone>D-Fenchone>Norpseudoephedrine HCl | – | –
CC1(C)C(=O)[C@@]2(C)CC[C@H]1C2 [L-Fenchone] | Fenchol>Octopamine>Carvamenthenol>Camphene>Pentanone>Synephrine>Leucinamide>Carene>α-Terpineol>Breneol>L-Fenchone>D-Fenchone>Norpseudoephedrine HCl | – | –
CC(C)C[C@H](N)C(N)=O [Leucinamide] | Fenchol>Octopamine>Carvamenthenol>Camphene>Pentanone>Synephrine>Leucinamide>Carene>α-Terpineol>Breneol>L-Fenchone>D-Fenchone>Norpseudoephedrine HCl | – | –
C[C@H](N)[C@@H](O)c1ccccc1 [Norpseudoephedrine HCl] | Fenchol>Octopamine>Carvamenthenol>Camphene>Pentanone>Synephrine>Leucinamide>Carene>α-Terpineol>Breneol>L-Fenchone>D-Fenchone>Norpseudoephedrine HCl | – | –
NCC(O)c1ccc(O)cc1 (centres unmarked) [Octopamine] | Fenchol>Octopamine>Carvamenthenol>Camphene>Pentanone>Synephrine>Leucinamide>Carene>α-Terpineol>Breneol>L-Fenchone>D-Fenchone>Norpseudoephedrine HCl | – | Fenchol<Carvamenthenol<α-Terpineol<Carene<Pentanone<Octopamine<Camphene
CNCC(O)c1ccc(O)cc1 (centres unmarked) [Synephrine] | Fenchol>Octopamine>Carvamenthenol>Camphene>Pentanone>Synephrine>Leucinamide>Carene>α-Terpineol>Breneol>L-Fenchone>D-Fenchone>Norpseudoephedrine HCl | – | –
CC1=CCC(C(C)(C)O)CC1 (stereo not drawn) [α-Terpineol] | Fenchol>Octopamine>Carvamenthenol>Camphene>Pentanone>Synephrine>Leucinamide>Carene>α-Terpineol>Breneol>L-Fenchone>D-Fenchone>Norpseudoephedrine HCl | – | Fenchol<Carvamenthenol<α-Terpineol<Carene<Pentanone<Octopamine<Camphene
Carene | Fenchol>Octopamine>Carvamenthenol>Camphene>Pentanone>Synephrine>Leucinamide>Carene>α-Terpineol>Breneol>L-Fenchone>D-Fenchone>Norpseudoephedrine HCl | – | Fenchol<Carvamenthenol<α-Terpineol<Carene<Pentanone<Octopamine<Camphene
Carvamenthenol | Fenchol>Octopamine>Carvamenthenol>Camphene>Pentanone>Synephrine>Leucinamide>Carene>α-Terpineol>Breneol>L-Fenchone>D-Fenchone>Norpseudoephedrine HCl | – | Fenchol<Carvamenthenol<α-Terpineol<Carene<Pentanone<Octopamine<Camphene
